Values joined by “and” are separate entries in the source; they are usually repeats but may differ in a detail not shown here. Identical values can stand only once.
Legend:
Test in all cases: MIC against clinical Mtb strains
Assay type in all cases: cell-based
Details in all cases: Mycobacterium tuberculosis
[1] = system: MDR-TB resistant to HREZSKP
[2] = system: MDR-TB resistant to HREKP
[3] = system: XDR-TB resistant to HREKO
[4] = system: XDR-TB resistant to HRESKO
[5] = system: MDR-TB resistant to HRERb

Compound | MIC90 [1] | MIC90 [2] | MIC90 [3] | MIC90 [4] | MIC90 [5]
Cc1cn2c(C(=O)NCc3ccc(Oc4ccc(F)cc4)cc3)c(C)nc2s1 [ND-010081] | 0.02 µM to 10 µM and 0.05 µg/mL to 25 µg/mL | < 0.01 µM and < 0.025 µg/mL | < 0.01 µM and < 0.025 µg/mL | < 0.01 µM and < 0.025 µg/mL | 0.63 µM and 1.6 µg/mL
O=[N+]([O-])c1cn2c(n1)OC[C@@H](OCc1ccc(OC(F)(F)F)cc1)C2 [PA-824, reference compound] | 0.45 µM to 0.86 µM and 0.16 µg/mL to 0.31 µg/mL | 0.45 µM to 0.86 µM and 0.16 µg/mL to 0.31 µg/mL | 0.22 µM and 0.08 µg/mL | 0.86 µM and 0.31 µg/mL | 0.45 µM to 0.86 µM and 0.16 µg/mL to 0.31 µg/mL

Reference: patent US9605002B2, “5,5-heteroaromatic anti-infective compounds” (priority 2012, dated 2017)
